Patent publication US10975119B2, “Selective cysteine protease inhibitors and uses thereof” (Genesis Technologies Limited, priority 2011, dated 2021)
Read-outs that look alike come from different tables or passages of the source.

Columns and labels:
Type in all cases: biochemical
Caspase-8 = target: T1, Caspase-8 (Homo sapiens, UniProt Q14790); assay: Caspase-8 inhibitor screening assay (BioVision kit, IETD-AFC); details: for inhibition at 10 µM: read-out: % Inhibition at 10 uM Casp8; for inhibition at 100 µM: read-out: % Inhibition at 100 uM Casp8; for IC50: read-out: IC50 Casp8
T1 construct: mixing the compounds with the respective active caspases; purchased BioVision K158-100
T1 sequence (Q14790 217-374 limits assumed): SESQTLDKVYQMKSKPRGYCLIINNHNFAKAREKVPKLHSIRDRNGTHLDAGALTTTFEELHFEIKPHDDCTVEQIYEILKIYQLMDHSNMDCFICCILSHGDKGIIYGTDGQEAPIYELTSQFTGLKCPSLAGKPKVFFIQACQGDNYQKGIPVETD
T1 sequence (Q14790 385-479 limits assumed): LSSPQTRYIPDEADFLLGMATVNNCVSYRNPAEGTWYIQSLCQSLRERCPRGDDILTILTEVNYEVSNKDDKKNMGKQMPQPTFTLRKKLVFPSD
Experimental: (§1) The efficacy of an array of compounds as an inhibitor of the activity of Caspases 1 through 10 were assessed by using the respective Caspase Inhibitor Drug Screening Kits (Caspase-1 Catalog #: K151-100, Caspase-2 Catalog #: K152-100, Caspase-3 Catalog #: K153-100, Caspase-4 Catalog #: K154-100, Caspase-5 Catalog #: K155-100, Caspase-6 Catalog #: K156-100, Caspase-7 Catalog #: K157-100, Caspase-8 Catalog #: K158-100, Caspase-9 Catalog #: K159-100, Caspase-10 Catalog #: K160-100, BioVision) following the instructions of the manufacturer. […] Active caspases cleaved their respective synthetic substrates to release free AFC, which was then quantified by fluorometry.
(§2) Briefly, the compounds were first tested at 2 concentrations (10 uM and 100 uM final) to determine if there is a hit. […] Each condition was tested in duplicates. […] For some samples, a smaller range of concentrations was tested depending on the % Inhibition results at 10 uM and 100 uM. Results were summarized in Tables 2, 3, and 4 herein after. Table 2 represents the IC50 values (uM) of the test compounds as inhibitors of the activity of the various caspases.
(§3) (*) RFU (no inhibitor control)—RFU (compound at a specific concentration)
(§4) RFU (no inhibitor control)

Caspase-4 = target: T2, Caspase-4 (Homo sapiens, UniProt P49662); assay: Caspase-4 inhibitor screening assay (BioVision kit, LEVD-AFC); details: for inhibition at 10 µM: read-out: % Inhibition at 10 uM Casp4; for inhibition at 100 µM: read-out: % Inhibition at 100 uM Casp4; for IC50: read-out: IC50 Casp4
T2 construct: mixing the compounds with the respective active caspases; purchased BioVision K154-100
T2 sequence (P49662 81-270 limits assumed): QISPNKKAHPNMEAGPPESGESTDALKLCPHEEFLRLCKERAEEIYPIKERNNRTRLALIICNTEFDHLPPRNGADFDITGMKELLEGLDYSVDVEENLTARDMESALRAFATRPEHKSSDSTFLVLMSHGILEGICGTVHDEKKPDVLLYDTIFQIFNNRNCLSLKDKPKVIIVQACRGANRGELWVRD
T2 sequence (P49662 290-377 limits assumed): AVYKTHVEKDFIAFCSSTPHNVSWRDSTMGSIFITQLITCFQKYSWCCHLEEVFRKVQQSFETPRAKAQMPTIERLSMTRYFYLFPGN
Experimental: as §1, §2, §3, §4

Caspase-9 = target: T3, Caspase-9 (Homo sapiens, UniProt P55211); assay: Caspase-9 inhibitor screening assay (BioVision kit, LEHD-AFC); details: for inhibition at 10 µM: read-out: % Inhibition at 10 uM Casp9; for inhibition at 100 µM: read-out: % Inhibition at 100 uM Casp9; for IC50: read-out: IC50 Casp9
T3 construct: purchased BioVision K159-100
T3 sequence (P55211 1-315 limits assumed): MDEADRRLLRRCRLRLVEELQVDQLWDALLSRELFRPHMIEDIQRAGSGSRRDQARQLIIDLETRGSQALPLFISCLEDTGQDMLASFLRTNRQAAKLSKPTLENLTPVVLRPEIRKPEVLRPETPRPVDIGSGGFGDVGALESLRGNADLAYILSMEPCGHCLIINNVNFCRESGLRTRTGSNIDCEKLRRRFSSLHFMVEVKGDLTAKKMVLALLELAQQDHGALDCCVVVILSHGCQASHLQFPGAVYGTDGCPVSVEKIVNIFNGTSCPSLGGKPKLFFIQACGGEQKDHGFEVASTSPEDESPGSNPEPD
T3 sequence (P55211 331-416 limits assumed): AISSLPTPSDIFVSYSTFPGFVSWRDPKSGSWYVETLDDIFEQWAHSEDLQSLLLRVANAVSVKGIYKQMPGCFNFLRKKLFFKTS
Experimental: as §1, §2, §3, §4

Caspase-6 = target: T4, Caspase-6 (Homo sapiens, UniProt P55212); assay: Caspase-6 inhibitor screening assay (BioVision kit, VEID-AFC); details: for inhibition at 10 µM: read-out: % Inhibition at 10 uM Casp6; for inhibition at 100 µM: read-out: % Inhibition at 100 uM Casp6
T4 construct: mixing the compounds with the respective active caspases; purchased BioVision K156-100
T4 sequence (P55212 24-179 limits assumed): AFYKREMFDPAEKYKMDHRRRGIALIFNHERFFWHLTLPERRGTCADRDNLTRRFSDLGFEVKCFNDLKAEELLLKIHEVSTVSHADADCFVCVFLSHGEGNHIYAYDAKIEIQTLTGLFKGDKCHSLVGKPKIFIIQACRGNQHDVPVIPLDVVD
T4 sequence (P55212 194-293 limits assumed): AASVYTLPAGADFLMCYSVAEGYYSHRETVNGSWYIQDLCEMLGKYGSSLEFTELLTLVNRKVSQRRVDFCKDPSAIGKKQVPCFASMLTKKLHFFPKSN
Experimental: as §1, §2, §3, §4

Caspase-10 = target: T5, Caspase-10 (Homo sapiens, UniProt Q92851); assay: Caspase-10 inhibitor screening assay (BioVision kit, AEVD-AFC); details: for inhibition at 10 µM: read-out: % Inhibition at 10 uM Casp10; for inhibition at 100 µM: read-out: % Inhibition at 100 uM Casp10; for IC50: read-out: IC50 Casp10
T5 construct: mixing the compounds with the respective active caspases; purchased BioVision K160-100
T5 sequence (Q92851 220-415 limits assumed): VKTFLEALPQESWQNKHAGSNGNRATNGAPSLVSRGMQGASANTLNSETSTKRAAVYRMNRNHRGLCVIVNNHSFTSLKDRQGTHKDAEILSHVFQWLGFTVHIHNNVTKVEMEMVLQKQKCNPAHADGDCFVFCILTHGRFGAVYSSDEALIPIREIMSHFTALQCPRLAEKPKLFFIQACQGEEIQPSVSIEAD
T5 sequence (Q92851 416-521 limits assumed): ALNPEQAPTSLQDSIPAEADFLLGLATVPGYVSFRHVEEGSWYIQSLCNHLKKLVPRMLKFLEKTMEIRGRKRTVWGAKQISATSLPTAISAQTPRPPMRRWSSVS
Experimental: as §1, §2, §3, §4

Caspase-2 = target: T6, Caspase-2 (Homo sapiens, UniProt P42575); assay: Caspase-2 inhibitor screening assay (BioVision kit, VDVAD-AFC); details: for inhibition at 10 µM: read-out: % Inhibition at 10 uM Casp2; for inhibition at 100 µM: read-out: % Inhibition at 100 uM Casp2; for IC50: read-out: IC50 Casp2
T6 construct: mixing the compounds with the respective active caspases; purchased BioVision K152-100
T6 sequence (P42575 170-325 limits assumed): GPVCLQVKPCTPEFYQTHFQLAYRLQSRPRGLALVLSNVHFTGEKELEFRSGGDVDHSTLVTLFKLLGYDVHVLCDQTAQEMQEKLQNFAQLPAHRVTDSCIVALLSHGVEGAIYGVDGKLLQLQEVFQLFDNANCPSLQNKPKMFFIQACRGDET
T6 sequence (P42575 334-452 limits assumed): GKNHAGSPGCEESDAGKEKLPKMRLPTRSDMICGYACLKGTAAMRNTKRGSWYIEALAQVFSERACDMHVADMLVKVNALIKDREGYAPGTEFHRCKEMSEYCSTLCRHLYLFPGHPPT
Experimental: as §1, §2, §3, §4

| Compound | inhibition at 10 µM (Caspase-8) [%] | inhibition at 100 µM (Caspase-8; 100 uM) [%] | IC50 (Caspase-8) [µM] | inhibition at 10 µM (Caspase-4) [%] | inhibition at 100 µM (Caspase-4) [%] | IC50 (Caspase-4) [µM] | inhibition at 10 µM (Caspase-9) [%] | inhibition at 100 µM (Caspase-9; 100 uM) [%] | IC50 (Caspase-9) [µM] | inhibition at 10 µM (Caspase-6) [%] | inhibition at 100 µM (Caspase-6) [%] | IC50 (Caspase-6; read-out: IC50 Casp6) [µM] | inhibition at 10 µM (Caspase-10) [%] | inhibition at 100 µM (Caspase-10; 100 uM) [%] | IC50 (Caspase-10) [µM] | inhibition at 10 µM (Caspase-2) [%] | inhibition at 100 µM (Caspase-2) [%] | IC50 (Caspase-2) [µM] | also measured |
| --- | --- | --- | --- | --- | --- | --- | --- | --- | --- | --- | --- | --- | --- | --- | --- | --- | --- | --- | --- |
| CC(C)[C@H](NC(=O)OCc1ccccc1)C(=O)N[C@H](/C=C/S(C)(=O)=O)CC(=O)O [Compound 3, Z-Val-Asp methyl vinyl sulfone] | 0 | 23 | > 100 | 0 | 2 | > 100 | 0 | 17 | > 100 | 0 | 0 | > 100 | 15 | 50 | > 100 | 0 | 0 | > 100 |  |
| CC(C)[C@H](NC(=O)OCc1ccccc1)C(=O)N[C@H](/C=C(\Cl)S(C)(=O)=O)CC(=O)O [Compound 2, Cbz-Val-Asp achlorovinyl methyl vinyl sulfone] | 2 | 49 | > 100 | 0 | 6 | > 100 | 16 | 66 | 50.9 | 1 | 19 | > 100 | 0 | 48 | > 100 | 0 | 0 | > 100 | % Inhibition at 100 uM Casp8 (Caspase-8; 100 uM): 33%; % Inhibition at 100 uM Casp9 (Caspase-9; 100 uM): 70%; % Inhibition at 100 uM Casp10 (Caspase-10; 100 uM): 31% |
| CS(=O)(=O)/C=C/[C@H](CC(=O)O)NC(=O)C1CCCN1C(=O)[C@@H](NC(=O)[C@H](CC(=O)O)NC(=O)OCc1ccccc1)C1CC1 (stereo in doubt) [Compound 28, Z-Asp-Cyclopropylglycine-Pro-Asp-methyl vinyl sulfone] | 20 | 80 | 27.6 | 73 | 100 | 5.22 | 54 | 93 | 9.07 | 2 | 4 | > 100 | 82 | 99 | 2.45 | 22 | 79 | 30.4 |  |
| CC(C)[C@H](NC(=O)[C@@H](N)Cc1ccc(O)cc1)C(=O)N[C@@H](C)C(=O)N[C@H](/C=C/S(C)(=O)=O)CC(=O)O [Compound 42, Tyr-Val-Ala-Asp methyl vinyl sulfone] | 12 | 30 | > 100 | 28 | 100 | 17.1 | 0 | 26 | > 100 | 6 | 4 | > 100 | 13 | 79 | 34 | 0 | 0 | > 100 |  |

Further lines, with some results ahead:

| inhibition at 10 µM (Caspase-8) [%] | inhibition at 100 µM (Caspase-8; 100 uM) [%] | IC50 (Caspase-8) [µM] | inhibition at 10 µM (Caspase-4) [%] | inhibition at 100 µM (Caspase-4) [%] | IC50 (Caspase-4) [µM] | inhibition at 10 µM (Caspase-9) [%] | inhibition at 100 µM (Caspase-9; 100 uM) [%] | IC50 (Caspase-9) [µM] | inhibition at 10 µM (Caspase-6) [%] | inhibition at 100 µM (Caspase-6) [%] | IC50 (Caspase-6; read-out: IC50 Casp6) [µM] | inhibition at 10 µM (Caspase-10) [%] | inhibition at 100 µM (Caspase-10; 100 uM) [%] | IC50 (Caspase-10) [µM] | inhibition at 10 µM (Caspase-2) [%] | inhibition at 100 µM (Caspase-2) [%] | IC50 (Caspase-2) [µM] | Compound | also measured |
| --- | --- | --- | --- | --- | --- | --- | --- | --- | --- | --- | --- | --- | --- | --- | --- | --- | --- | --- | --- |
| 8 | 23 | > 100 | 88 | 100 | 0.63 | 24 | 73 | 47.3 | 2 | 1 | > 100 | 27 | 90 | 18 | 3 | 5 | > 100 | CC(C)(C)[C@H](NC(=O)c1ccc2ncccc2n1)C(=O)N1CCCC1C(=O)N[C@H](/C=C/S(C)(=O)=O)CC(=O)O (stereo in doubt) [Compound 8, (1,5-Naphthyridine-2-carbonyl)-t-Leu-Pro-Asp methyl vinyl sulfone] |  |
| 97 | 100 | 0.66 | 100 | 100 | 0.375 | 82 | 97 | 0.79 | 88 | 96 | 0.6 | 100 | 100 | 0.13 | 2 | 4 |  | CCC(C)[C@H](NC(=O)[C@H](CCC(=O)O)NC(=O)[C@@H](NC(=O)OCc1ccccc1)C(C)C)C(=O)N[C@H](/C=C/S(C)(=O)=O)CC(=O)O (stereo partly drawn) [Compound 38, Z-Val-Glu-Ile-Asp-methyl vinyl sulfone] |  |
|  |  | 0.19 |  |  | 1.27 |  |  | 7.5 |  |  | 0.29 |  |  | 0.03 |  |  | 10 | CCOC(=O)/C=C/[C@H](CC(=O)O)NC(=O)[C@@H](NC(=O)[C@H](CCC(=O)O)NC(=O)[C@@H](NC(=O)OCc1ccccc1)C(C)C)C(C)CC (stereo partly drawn) [Compound 124, Z-Val-Glu-Ile-Asp-Ethyl Vinyl ester] | IC50 (Caspase-6; read-out: inhibition (IC50) against Caspase-6): 0.293 µM |
| 34 | 94 | 14.7 | 91 | 100 | 1.92 | 76 | 98 | 3.23 | 0 | 0 | > 100 | 65 | 98 | 4.67 | 3 | 6 | > 100 | CC(C)(C)[C@H](NC(=O)c1ccc2ncccc2c1)C(=O)N1CCCC1C(=O)N[C@H](/C=C/S(C)(=O)=O)CC(=O)O (stereo in doubt) [Compound 10, Quinoline-6-carbonyl-t-Leu-Pro-Asp methyl vinyl sulfone] |  |
